Experimental data as given in patent US10857167B2, “Use of oligosaccharide compositions to enhance weight gain” (Children's Hospital Medical Center, priority 2015, dated 2020).
Entries after “also recorded” stand apart in the source; their conditions may differ.

Legend:
[1] = system: mouse model of adaptation following extensive ileocecal resection (ICR); assay: Weight change after ileocecal resection (ICR) in mice; assay type: in vivo; details: for weight / weight gain compared to control after ICR: 56 day experiment, on and beyond postoperative day 21
Source text: A mouse model of adaptation following intestinal resection was previously reported. Under the aid of an operating microscope and utilizing sedation with 2% isoflurane, a midline incision was made […] and the bowel was eviscerated (FIG. 7). […] Intestinal continuity was restored by end-to-end anastomosis and the abdomen of mice was closed (FIG. 9). The mice received one dose of intraperitoneal broad-spectrum antibiotics. In particular, C57 Black 6 mice of 8 to 10 weeks in age were subjected to ileocecal resection (FIG. 11). 5 animals were carried to post-operative day 56 in the usual fashion. Seven animals were carried to the same time point but supplemented with 2'Fucosyllactose. 2'FL was added to both liquid diet (LD) and standard diet (SD) with water to achieve a final concentration of 21⁄2 grams per liter. All animals were weighed once daily during the first week then once every other day thereafter. Male C57BL/6 mice (Jackson Labs, Me.) of 8 to 10 weeks of age were weighed and started on an exclusive polymeric formula diet one day prior to experiment start (Jevity 1 Cal, Abbott Nutrition, Columbus, Ohio). All mice were administered one dose of intraperitoneal Zosyn (at approximately 100 mg/kg) on experiment day 0. All animals were grouped by operation status and subgrouped into treatment and control arms (Table 4). Liquid diet was refreshed and weights obtained daily for 7 days then all mice were transitioned to a standard chow diet with access to water. Animals in both groups were weighed every other day and taken to 21 or 56 days for experiment completion. All animal studies were approved by the Cincinnati Children's Hospital Medical Center Institutional Animal Care and Use Committee. Non-operated animals were maintained as described above. Operated animals were taken to the operating room on experimental day 0 and underwent ileocecal resection (ICR) as previously described in […] et al. (2007) American journal of physiology Gastrointestinal and liver physiology 293: G1013-1022. Under the aid of an operating microscope and utilizing sedation with 2% isoflurane, a midline incision was made and the bowel eviscerated. The ileocecal junction was identified and approximately 12 cm of ileum and cecum were resected. Resected small bowel tissue and luminal contents were collected as described below. Intestinal continuity was restored by end-to-end anastomosis and the abdomen was closed (FIG. 28). ICR mice were then assigned to control or treatment subgroups, were administered analgesia with subcutaneous buprenorphine (0.05-0.1 mg/kg) and recovered overnight in a standard neonatal incubator warmed to approximately 38 degrees Celsius. Control (non-operated) animals were maintained as described above. Beginning on experiment day 0, treatment animals were supplemented with 2'-Fucosyllactose. 2'-FL was added to formula then water to a final concentration of 2.5 grams per liter. Formula was refreshed daily and water refreshed every other day. […] Intestinal length was compared across groups using the Wilcoxon rank-sum test as values were not normally distributed. Histologic count data was averaged per mouse across two samples and compared by the Wilcoxon rank-sum test. Weight data was analyzed using Stata version 13.0 (StataCorp LP, TX). Remaining morphometric and histologic data were analyzed using GraphPad Prism version 5 (GraphPad Software Inc, CA).

[2] = system: small bowel of mice after ileocecal resection (ICR); assay: Histologic markers of adaptation (villus height, crypt depth, bowel circumference, intestinal length) after ICR; assay type: in vivo, mouse; details: for crypt depth, median / intestinal length (corrected), median / small bowel circumference, median / villus height, median: 2′-FL supplemented ICR subgroup, interquartile range in brackets
Method: At the time of resection, tissue was obtained to prepare for histologic examination (FIG. 12). No differences in measurements of villus height, crypt depth, and bowel circumference were found at the time of resection. […] Crypts of both post-operative control and 2′ FL supplemented groups were deeper than those of pre-operative tissue. […] Only weights were obtained from non-operated control animals. Resected intestine from operated animals was measured for length then the site of small bowel transection was processed for small bowel contents, histology, and RNA. At the time of experimental completion, small bowel immediately proximal to the site of anastomosis was also harvested for small bowel contents, histology, and RNA from the operated group. Small bowel tissue samples for histology were cut in the longitudinal and transverse section, fixed with 4% paraformaldehyde, mounted in paraffin, and stained with hemotoxylin and eosin. Villous height, crypt depth, and bowel circumference were measured in a blinded manor. At least 10 well-oriented villus and crypt domains were assessed for each sample and two samples were averaged per mouse. The serosal circumference was measured twice per sample with two samples per mouse. The average value per mouse was determined. Measurements were performed using the Nikon Ti-Eclipse with NIS Element Advanced Research version 4.20 (Nikon Inc, NY). […] Intestinal length was compared across groups using the Wilcoxon rank-sum test as values were not normally distributed. Histologic count data was averaged per mouse across two samples and compared by the Wilcoxon rank-sum test. Weight data was analyzed using Stata version 13.0 (StataCorp LP, TX). Remaining morphometric and histologic data were analyzed using GraphPad Prism version 5 (GraphPad Software Inc, CA).

## C[C@@H]1O[C@@H](O[C@H]2[C@H](O[C@H]3[C@H](O)[C@@H](O)C(O)O[C@@H]3CO)O[C@H](CO)[C@H](O)[C@@H]2O)[C@@H](O)[C@H](O)[C@@H]1O (some centres unmarked) [2′-FL, 2′-fucosyllactose]
[1]; 2′-FL supplemented ICR subgroup
  time to return to preoperative weight after ICR: 3 to 4 weeks
[1]; 2′-FL supplemented ICR subgroup, 2.5 grams per liter in formula then water
  body weight lost during the first postoperative week: approximately 10%
[1]
  weight / weight gain compared to control after ICR: improved growth; also recorded: increased weight gain; also recorded: gained more weight
[1]; listed as 2′FL
  weight / weight gain compared to control after ICR: improved late-term weight-gain profile
[1]; animals taken to harvest at postoperative day 21
  weight difference between control and 2′-FL supplemented subgroups: no significant weight difference
[1]; at 56 days after ICR, 2′-FL supplemented ICR subgroup
  percent of preoperative body weight achieved: 110%
[2]; postoperative day 21
  crypt depth, median: 89 μm
  intestinal length (corrected), median: 35.5 cm
  small bowel circumference, median: 7,133 μm
  villus height, median: 346 μm
  crypt depth compared to control ICR: no difference
  villus height compared to control ICR: no difference
[2]; postoperative day 56
  crypt depth, median: 106 μm
  intestinal length (corrected), median: 38.5 cm
  small bowel circumference, median: 9,671 μm
  villus height, median: 405 μm
  villus height compared to control ICR: appeared longer; also recorded: trended toward a greater height
[2]; point of weight divergence, 21 days post-ICR
  histologic markers of adaptation (crypt depth, villus height, bowel circumference) compared to control: did not alter
[2]; postoperative day 21 and day 56
  intestinal length compared to control ICR: no difference
[2]; postoperative day 56 (8 weeks)
  crypt depth compared to control ICR: increased; also recorded: significantly deeper
[2]; postoperative day 56 (8 weeks), listed as 2′ Fl
  crypt depth compared to control ICR: significantly greater
[2]; postoperative day 56 (8 weeks), listed as 2′FL
  crypt depth compared to control ICR: significantly greater
[2]; postoperative day 56 (Example 2)
  bowel circumference compared to control ICR: no significant difference
[2]; postoperative day 56, listed as 2′-Fl
  villus height compared to control ICR: appeared longer
[2]; postoperative day 56 plotted alongside day 21
  duration of the acute histologic response to ICR compared to control: sustains the acute histologic response over a longer time period; also recorded: sustained the acute increases
[2]; postoperative days 21 or 56
  small bowel circumference compared to control ICR: no statistical difference
